Experimental findings from PMC11790956, “A microscale thermophoresis-based enzymatic RNA methyltransferase assay enables the discovery of DNMT2 inhibitors” (Communications Chemistry, 2025) are described below.

Structures are written as SMILES. pIC50: −log10 of the molar value.

One assay has as its target T1, DNMT2 (Homo sapiens, UniProt O14717).
T1 construct: made in house
T1 sequence (O14717 1-391): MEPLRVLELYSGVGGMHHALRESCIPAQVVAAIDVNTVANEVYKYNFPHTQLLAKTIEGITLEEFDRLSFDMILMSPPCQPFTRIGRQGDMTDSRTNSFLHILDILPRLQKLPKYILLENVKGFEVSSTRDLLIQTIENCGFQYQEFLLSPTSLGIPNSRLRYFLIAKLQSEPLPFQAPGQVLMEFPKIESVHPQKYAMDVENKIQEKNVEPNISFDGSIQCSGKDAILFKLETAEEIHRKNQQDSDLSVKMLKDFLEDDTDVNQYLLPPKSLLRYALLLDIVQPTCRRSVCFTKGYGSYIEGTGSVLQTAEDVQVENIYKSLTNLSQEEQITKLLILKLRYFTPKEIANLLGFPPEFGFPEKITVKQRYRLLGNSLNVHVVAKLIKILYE
As to the kind of experiment: DNMT2 enzymatic split aptamer MST assay. It counts as biochemical.

A further assay has as its target T2, DNMT2-tRNA complex (Homo sapiens, UniProt O14717).
T2 construct: made in house
T2 sequence (O14717 1-391): T1 sequence (O14717 1-391)
Put plainly: Electrophoretic mobility shift assay (EMSA) of the DNMT2-tRNA complex. The following applies: 500 µM compound, DNMT2 10 µM, tRNAAsp 5 µM. It counts as binding. The protocol: We speculated these hits might bind very weakly to the tRNA-DNMT2 interaction site and by this inhibit DNMT2 activity. To test this hypothesis, we performed an electrophoretic mobility shift assay (EMSA) using tRNA^Asp (5 µM) and DNMT2 (10 µM) compared to the tRNA sample in absence of the DNMT2 protein (SI Fig. 4)[33]. […] Subsequently, we treated the DNMT2-tRNA complex with all hit compounds at 500 µM and observed their potential to disrupt the complex.
DNMT2 (10 µM) was mixed with tRNA^Asp (5 µM) and treated with 500 µM of the respective screening hit compound in DNMT2 assay buffer (100 mM Tris-HCl, pH 8, 100 mM NH4OAc, 0.1 mM EDTA, 10 mM MgCl2, 10 mM DTT). Subsequently, reaction samples (each 5 µL) were loaded to a native 10% polyacrylamide gel and separated electrophoretically (1 h, 180 V) in 1x TBE. RNA was stained in situ with 1x GelRed and PAGE analysis was conducted by fluorescence scanning at an excitation wavelength of 532 nm (Amersham Typhoon 9400). Positive control: DNMT2+tRNA (band at high molecular weights); negative control: only tRNA (band at low molecular weights).
SI Figure 4. Electrophore?c mobility shi? assay (EMSA) to inves?gate the inﬂuence of screening hits on the DNMT2-tRNA complex forma?on. D NMT2 (10 µ M ) was mixe d w it h t RNAAsp (5 µM) and treated with 50 0 µM of the respec?ve screening hit compound in DNMT2 assay buﬀer. All reac?on samples (each 5 µL) were loaded to a na?ve 10% polyacr ylamide gel and separated electrophore?cally (1 h, 1 80 V) in 1x TBE. RNA was stained in situ with 1x GelRed and PAGE analysis was conducted by ﬂuorescence scanning at an excita?on wavelength of 532 nm (Amersham Typhoon 9400). Po s i ? ve control: DNMT2+tRNA (band at high molecular weights); nega?ve control: only tRNA (band at low

The target in another assay is T3, METTL3/14 (Homo sapiens, UniProt Q86U44).
T3 construct: purchased BPS Bioscience BPS-100105
Put plainly: METTL3/14 enzymatic split aptamer MST assay. The assay is classed as biochemical. The conditions noted are these: 500 µM of hit compound, Fig. 5D.

T3 sequence (Q86U44 2-580 limits assumed): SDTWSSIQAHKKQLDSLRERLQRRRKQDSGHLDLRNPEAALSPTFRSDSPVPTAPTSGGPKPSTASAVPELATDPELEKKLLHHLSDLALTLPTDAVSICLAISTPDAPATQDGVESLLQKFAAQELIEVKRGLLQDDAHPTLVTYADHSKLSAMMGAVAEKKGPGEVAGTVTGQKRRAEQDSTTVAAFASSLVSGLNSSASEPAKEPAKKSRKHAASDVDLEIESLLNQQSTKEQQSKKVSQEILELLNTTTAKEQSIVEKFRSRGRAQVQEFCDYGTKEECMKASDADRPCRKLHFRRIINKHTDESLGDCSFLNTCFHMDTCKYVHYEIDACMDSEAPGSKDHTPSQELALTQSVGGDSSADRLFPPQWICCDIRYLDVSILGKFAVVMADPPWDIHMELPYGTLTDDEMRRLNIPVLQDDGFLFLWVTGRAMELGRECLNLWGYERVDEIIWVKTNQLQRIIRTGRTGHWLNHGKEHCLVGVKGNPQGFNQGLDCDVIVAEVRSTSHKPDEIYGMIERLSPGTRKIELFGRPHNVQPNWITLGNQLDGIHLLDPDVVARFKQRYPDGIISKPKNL
T3 sequence (Q9HCE5 2-456 partner limits assumed): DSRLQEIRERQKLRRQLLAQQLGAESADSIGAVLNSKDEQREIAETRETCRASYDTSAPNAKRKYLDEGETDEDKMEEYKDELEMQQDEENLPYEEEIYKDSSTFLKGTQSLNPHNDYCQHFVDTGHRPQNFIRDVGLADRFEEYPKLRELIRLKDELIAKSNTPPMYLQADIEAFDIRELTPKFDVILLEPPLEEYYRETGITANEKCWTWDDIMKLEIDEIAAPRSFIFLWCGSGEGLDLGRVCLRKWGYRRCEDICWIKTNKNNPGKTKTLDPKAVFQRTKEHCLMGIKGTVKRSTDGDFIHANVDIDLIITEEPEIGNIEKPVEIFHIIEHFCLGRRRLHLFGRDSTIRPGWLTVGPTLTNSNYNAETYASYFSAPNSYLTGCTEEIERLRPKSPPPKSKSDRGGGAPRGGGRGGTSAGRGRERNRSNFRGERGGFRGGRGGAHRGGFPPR
Experimental for METTL3/14: Specifically, we studied the m^6A MTase METTL3/14 and the m^7G MTase S. aureus TrmD.
For MTase assay detection by MST, enzyme reaction mixtures with a total volume of 10 µL per single treatment condition were prepared and incubated for the desired reaction times. Inhibitors were added from corresponding DMSO stocks to a final DMSO concentration of max. […] Afterward, reactions were quenched at a given reaction time by the addition of 1 µL sodium dodecyl sulfate (SDS, solution, 3% in water) per 10 µL reaction mixture and mixed well by pipetting. […]
MST experiments were carried out in at least technical triplicates using a Monolith NT.115 instrument (NanoTemper Technologies) using Monolith standard capillaries and the blue excitation laser setup. […] General settings were applied for all MST experiments as follows: manual temperature control: 25 °C, fluorescence measurement before MST: 4 s, MST (IR laser) on: 20 s, fluorescence after MST: 2 s, delay: 25 s. The laser power was adjusted to optimize the signal-to-noise ratio and the fluorescence signal. LED and MST power settings were chosen individually for each sample by adjusting the LED power to yield fluorescence signals of at least 300 units (blue laser) or 3000 units (red laser) and the MST power to achieve an appropriate thermophoretic response (standard setting: medium MST power). […]

`C=CC(=O)NC(=O)NC12CC3CC(CC(C3)C1)C2` [Cpd 11, 1-(adamantan-1-yl)-3-(prop-2-enoyl)urea]: the inhibition at 100 µM at DNMT2 (100 µM compound, covalent library, 30 min at 25 °C, read-out: DNMT2 inhibition in primary screening) is > 90%. Moreover, the pIC50 against DNMT2 (MST-derived, 250 nM DNMT2, 5 µM tRNA, 0.9 µM SAM) is 5.39. In addition, the “influence on DNMT2-tRNA complex formation” value at DNMT2-tRNA complex is “do not inﬂuence the complex”. For the same molecule, at METTL3/14, the “inhibition of METTL3/14 (selectivity panel)” value is on record as “did not inhibit”.
